# PubChem BioAssay (NCI)
#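 Grown in 96-well plates, cells were treated for 48 hours with each compound at five concentrations. Insufficient inhibition: endpoint recorded as highest concentration tested. At the GI50, growth is halved. Definition used: TGI = concentration required for complete inhibition of growth.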
# Columns and labels:
# Experiment in all cases: growth of human tumour cells (NCI), 48 h
# OVCAR-5 ovarian = tested on: OVCAR-5 ovarian
# RPMI-8226 leukemia = tested on: RPMI-8226 leukemia
# UO-31 renal = tested on: UO-31 renal
# HCT-15 colon = tested on: HCT-15 colon
# TK-10 renal = tested on: TK-10 renal
# SR leukemia = tested on: SR leukemia
# 786-0 renal = tested on: 786-0 renal
# MCF7 breast = tested on: MCF7 breast
# NCI-H226 lung = tested on: NCI-H226 lung
# IGROV1 ovarian = tested on: IGROV1 ovarian
# K-562 leukemia = tested on: K-562 leukemia
# HT29 colon = tested on: HT29 colon
# HS 578T breast = tested on: HS 578T breast
# ACHN renal = tested on: ACHN renal
# KM12 colon = tested on: KM12 colon
# MDA-MB-435 = tested on: MDA-MB-435
# OVCAR-8 ovarian = tested on: OVCAR-8 ovarian
# OVCAR-4 ovarian = tested on: OVCAR-4 ovarian
# MALME-3M melanoma = tested on: MALME-3M melanoma
# OVCAR-3 ovarian = tested on: OVCAR-3 ovarian
# BT-549 breast = tested on: BT-549 breast
# EKVX NSCLC = tested on: EKVX NSCLC
# MOLT-4 leukemia = tested on: MOLT-4 leukemia
# NCI/ADR-RES ovarian = tested on: NCI/ADR-RES ovarian
# M14 melanoma = tested on: M14 melanoma
# CCRF-CEM leukemia = tested on: CCRF-CEM leukemia
# HOP-62 NSCLC = tested on: HOP-62 NSCLC
# HOP-92 NSCLC = tested on: HOP-92 NSCLC
# NCI-H460 lung = tested on: NCI-H460 lung
# SF-539 CNS = tested on: SF-539 CNS
# T-47D breast = tested on: T-47D breast
# SK-OV-3 ovarian = tested on: SK-OV-3 ovarian
# RXF 393 renal = tested on: RXF 393 renal
# NCI-H522 lung = tested on: NCI-H522 lung
# SNB-19 CNS = tested on: SNB-19 CNS
# A549 NSCLC = tested on: A549 NSCLC
# COLO 205 colon = tested on: COLO 205 colon
# SK-MEL-2 melanoma = tested on: SK-MEL-2 melanoma
# CAKI-1 renal = tested on: CAKI-1 renal
# NCI-H23 lung = tested on: NCI-H23 lung
# SW-620 colon = tested on: SW-620 colon
# HCT-116 colon = tested on: HCT-116 colon
# SN12C renal = tested on: SN12C renal
# U251 CNS = tested on: U251 CNS
# SK-MEL-28 melanoma = tested on: SK-MEL-28 melanoma
# HL-60(TB) leukemia = tested on: HL-60(TB) leukemia
# UACC-62 melanoma = tested on: UACC-62 melanoma
# SF-268 CNS = tested on: SF-268 CNS
# DU-145 prostate = tested on: DU-145 prostate
# UACC-257 melanoma = tested on: UACC-257 melanoma
# PC-3 prostate = tested on: PC-3 prostate
# SK-MEL-5 melanoma = tested on: SK-MEL-5 melanoma
# HCC-2998 colon = tested on: HCC-2998 colon
# SF-295 CNS = tested on: SF-295 CNS
# MDA-MB-231 breast = tested on: MDA-MB-231 breast
# LOX IMVI melanoma = tested on: LOX IMVI melanoma
# SNB-75 CNS = tested on: SNB-75 CNS
compound,measurement,setting,value
CCNCc1c(-c2cccc(OC(F)(F)F)c2)[nH]c2ccc(N3CCCC3)cc2c1=O,GI50,OVCAR-5 ovarian,3.81 µM
same,TGI,OVCAR-5 ovarian,43.5 µM
same,GI50,RPMI-8226 leukemia,2.44 µM
same,TGI,RPMI-8226 leukemia,6.85 µM
same,GI50,UO-31 renal,3.72 µM
same,TGI,UO-31 renal,> 100 µM
same,GI50,HCT-15 colon,3.47 µM
same,TGI,HCT-15 colon,15.9 µM
same,GI50,TK-10 renal,24.7 µM
same,TGI,TK-10 renal,> 100 µM
same,GI50,SR leukemia,2.71 µM
same,TGI,SR leukemia,12.4 µM
same,GI50,786-0 renal,3.84 µM
same,TGI,786-0 renal,20.6 µM
same,GI50,MCF7 breast,2.57 µM
same,TGI,MCF7 breast,11.2 µM
same,GI50,NCI-H226 lung,9.29 µM
same,TGI,NCI-H226 lung,> 100 µM
same,GI50,IGROV1 ovarian,3.54 µM
same,TGI,IGROV1 ovarian,> 100 µM
same,GI50,K-562 leukemia,3.4 µM
same,TGI,K-562 leukemia,> 100 µM
same,GI50,HT29 colon,3.53 µM
same,TGI,HT29 colon,> 100 µM
same,GI50,HS 578T breast,1.94 µM
same,TGI,HS 578T breast,6.48 µM
same,GI50,ACHN renal,6.73 µM
same,TGI,ACHN renal,> 100 µM
same,GI50,KM12 colon,3.54 µM
same,TGI,KM12 colon,20.7 µM
same,GI50,MDA-MB-435,1.95 µM
same,TGI,MDA-MB-435,4.32 µM
same,GI50,OVCAR-8 ovarian,5.22 µM
same,TGI,OVCAR-8 ovarian,> 100 µM
same,GI50,OVCAR-4 ovarian,7.77 µM
same,TGI,OVCAR-4 ovarian,> 100 µM
same,GI50,MALME-3M melanoma,1.99 µM
same,TGI,MALME-3M melanoma,4.41 µM
same,GI50,OVCAR-3 ovarian,3.45 µM
same,TGI,OVCAR-3 ovarian,20.3 µM
same,GI50,BT-549 breast,4.84 µM
same,TGI,BT-549 breast,44.6 µM
same,GI50,EKVX NSCLC,12.3 µM
same,TGI,EKVX NSCLC,> 100 µM
same,GI50,MOLT-4 leukemia,3.88 µM
same,TGI,MOLT-4 leukemia,37.3 µM
same,GI50,NCI/ADR-RES ovarian,2.48 µM
same,TGI,NCI/ADR-RES ovarian,7 µM
same,GI50,M14 melanoma,1.95 µM
same,TGI,M14 melanoma,4.28 µM
same,GI50,CCRF-CEM leukemia,3.52 µM
same,TGI,CCRF-CEM leukemia,> 100 µM
same,GI50,HOP-62 NSCLC,5.63 µM
same,TGI,HOP-62 NSCLC,73.8 µM
same,GI50,HOP-92 NSCLC,4.19 µM
same,TGI,HOP-92 NSCLC,38.4 µM
same,GI50,NCI-H460 lung,3.72 µM
same,TGI,NCI-H460 lung,16.2 µM
same,GI50,SF-539 CNS,2.24 µM
same,TGI,SF-539 CNS,5.85 µM
same,GI50,T-47D breast,4.78 µM
same,TGI,T-47D breast,59.3 µM
same,GI50,SK-OV-3 ovarian,7.19 µM
same,TGI,SK-OV-3 ovarian,> 100 µM
same,GI50,RXF 393 renal,2.39 µM
same,TGI,RXF 393 renal,7.61 µM
same,GI50,NCI-H522 lung,3.98 µM
same,TGI,NCI-H522 lung,23.1 µM
same,GI50,SNB-19 CNS,4.03 µM
same,TGI,SNB-19 CNS,> 100 µM
same,GI50,A549 NSCLC,5.81 µM
same,TGI,A549 NSCLC,> 100 µM
same,GI50,COLO 205 colon,2.36 µM
same,TGI,COLO 205 colon,5.74 µM
same,GI50,SK-MEL-2 melanoma,3.73 µM
same,TGI,SK-MEL-2 melanoma,17.2 µM
same,GI50,CAKI-1 renal,3.54 µM
same,TGI,CAKI-1 renal,17.6 µM
same,GI50,NCI-H23 lung,3.15 µM
same,TGI,NCI-H23 lung,10.7 µM
same,GI50,SW-620 colon,3.17 µM
same,TGI,SW-620 colon,13.7 µM
same,GI50,HCT-116 colon,3.46 µM
same,TGI,HCT-116 colon,35.4 µM
same,GI50,SN12C renal,4.12 µM
same,TGI,SN12C renal,46.4 µM
same,GI50,U251 CNS,3.23 µM
same,TGI,U251 CNS,14.8 µM
same,GI50,SK-MEL-28 melanoma,2.25 µM
same,TGI,SK-MEL-28 melanoma,5.51 µM
same,GI50,HL-60(TB) leukemia,2.86 µM
same,TGI,HL-60(TB) leukemia,9.69 µM
same,GI50,UACC-62 melanoma,3.47 µM
same,TGI,UACC-62 melanoma,14.3 µM
same,GI50,SF-268 CNS,6.44 µM
same,TGI,SF-268 CNS,69.2 µM
same,GI50,DU-145 prostate,3.8 µM
same,TGI,DU-145 prostate,> 100 µM
same,GI50,UACC-257 melanoma,2.35 µM
same,TGI,UACC-257 melanoma,6.08 µM
same,GI50,PC-3 prostate,3.87 µM
same,TGI,PC-3 prostate,> 100 µM
same,GI50,SK-MEL-5 melanoma,2.09 µM
same,TGI,SK-MEL-5 melanoma,4.42 µM
same,GI50,HCC-2998 colon,1.88 µM
same,TGI,HCC-2998 colon,3.58 µM
same,GI50,SF-295 CNS,1.97 µM
same,TGI,SF-295 CNS,4.06 µM
same,GI50,MDA-MB-231 breast,2.69 µM
same,TGI,MDA-MB-231 breast,9.28 µM
same,GI50,LOX IMVI melanoma,3.31 µM
same,TGI,LOX IMVI melanoma,12.5 µM
same,GI50,SNB-75 CNS,1.42 µM
same,TGI,SNB-75 CNS,8.65 µM
